Like-named read-outs stand apart in the source and are kept apart here.
Columns and labels:
[1] = molecular target: T1, hBRR2 (spliceosomal RNA helicase BRR2) (Homo sapiens, UniProt O75643); assay: co-crystal structure (X-ray, […] Å); assay type: binding; design: gene SNRNP200; hBRR2T1, residues 395-2129
[2] = molecular target: T1, hBRR2 (spliceosomal RNA helicase BRR2); assay: crystal soaking, X-ray structure ([…] Å); also U4/U6 unwinding inhibition; assay type: biochemical; design: gene SNRNP200; hBRR2T1 (residues 395-2129), N-terminal His tag not cleaved, baculovirus/High Five insect cells; isolated, without hJab1deltaC, in U4*/U6 unwinding assay
[3] = molecular target: T1, hBRR2 (spliceosomal RNA helicase BRR2); assay: as above; assay type: biochemical; design: gene SNRNP200; hBRR2T1 (residues 395-2129), N-terminal His tag not cleaved, baculovirus/High Five insect cells; isolated, without hJab1deltaC, in U4*/U6 unwinding assay; remark: listed apart in the source

T1 sequence (O75643 395-2129): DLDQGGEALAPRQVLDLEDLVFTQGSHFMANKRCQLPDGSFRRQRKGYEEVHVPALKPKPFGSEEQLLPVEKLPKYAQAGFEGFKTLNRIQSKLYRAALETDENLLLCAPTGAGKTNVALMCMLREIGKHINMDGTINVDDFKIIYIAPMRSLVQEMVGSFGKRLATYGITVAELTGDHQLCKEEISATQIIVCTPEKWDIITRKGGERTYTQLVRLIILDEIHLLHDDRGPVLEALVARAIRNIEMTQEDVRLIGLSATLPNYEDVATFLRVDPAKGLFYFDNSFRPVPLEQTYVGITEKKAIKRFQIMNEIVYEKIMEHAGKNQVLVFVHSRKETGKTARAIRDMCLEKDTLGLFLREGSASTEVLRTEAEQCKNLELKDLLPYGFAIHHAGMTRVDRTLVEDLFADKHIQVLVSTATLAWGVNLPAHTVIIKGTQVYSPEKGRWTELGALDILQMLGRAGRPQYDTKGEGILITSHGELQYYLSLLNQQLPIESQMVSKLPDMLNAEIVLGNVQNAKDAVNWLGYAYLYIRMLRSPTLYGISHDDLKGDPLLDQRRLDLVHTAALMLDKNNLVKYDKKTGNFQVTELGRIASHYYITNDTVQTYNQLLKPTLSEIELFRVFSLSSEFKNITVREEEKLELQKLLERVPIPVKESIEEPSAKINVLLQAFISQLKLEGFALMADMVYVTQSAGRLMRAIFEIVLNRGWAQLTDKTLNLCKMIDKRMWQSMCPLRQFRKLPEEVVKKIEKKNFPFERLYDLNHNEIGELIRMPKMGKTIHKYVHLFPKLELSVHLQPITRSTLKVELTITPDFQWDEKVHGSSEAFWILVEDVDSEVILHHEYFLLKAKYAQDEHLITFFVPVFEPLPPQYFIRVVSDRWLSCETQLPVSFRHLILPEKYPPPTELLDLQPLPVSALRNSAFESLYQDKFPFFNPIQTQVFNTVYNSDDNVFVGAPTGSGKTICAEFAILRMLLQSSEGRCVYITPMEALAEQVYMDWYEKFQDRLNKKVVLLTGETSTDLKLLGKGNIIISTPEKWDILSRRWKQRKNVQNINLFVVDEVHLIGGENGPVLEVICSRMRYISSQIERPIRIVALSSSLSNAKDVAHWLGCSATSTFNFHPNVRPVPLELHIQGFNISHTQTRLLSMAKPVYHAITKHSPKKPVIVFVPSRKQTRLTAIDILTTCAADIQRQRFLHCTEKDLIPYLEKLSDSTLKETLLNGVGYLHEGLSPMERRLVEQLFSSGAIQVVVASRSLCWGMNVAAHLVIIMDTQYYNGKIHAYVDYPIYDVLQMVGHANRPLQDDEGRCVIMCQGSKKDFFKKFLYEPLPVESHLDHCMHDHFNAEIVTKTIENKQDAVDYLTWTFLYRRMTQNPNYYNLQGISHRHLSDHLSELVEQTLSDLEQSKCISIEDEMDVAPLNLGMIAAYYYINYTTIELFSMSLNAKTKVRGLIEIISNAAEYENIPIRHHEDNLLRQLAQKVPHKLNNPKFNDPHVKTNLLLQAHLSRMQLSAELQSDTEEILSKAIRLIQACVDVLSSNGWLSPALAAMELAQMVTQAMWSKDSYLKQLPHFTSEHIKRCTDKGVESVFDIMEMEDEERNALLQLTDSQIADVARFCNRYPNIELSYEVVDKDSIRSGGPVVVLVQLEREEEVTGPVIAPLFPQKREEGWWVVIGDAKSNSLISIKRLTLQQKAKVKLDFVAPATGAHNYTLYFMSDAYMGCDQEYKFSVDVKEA

In the case of [H]/N=C(/N)NS(=O)(=O)c1ccc(N)cc1 [SG, 4-amino-N-(aminoiminomethyl)benzolsulfonamide], the “co-crystal structure (X-ray, 2.87 Å)” value [1] is reported as “In this hBRR2^T1 crystal structure, sulfaguanidine is positioned at the interface between the two helicase cassettes”.
O=S(=O)(NO)c1ccccc1 [compound 24, Piloty's acid] gave an IC50 [2] of over 90 µM.
In the case of O=S(=O)(N=C(S)S)c1ccccc1 [compound 50], the IC50 [3] is reported as over 1000 µM.

— paper PMC10071561, “Conformation-dependent ligand hot spots in the spliceosomal RNA helicase BRR2” (Acta Crystallographica. Section D, Structural Biology, 2023)
